According to BindingDB's records for doi:10.1016/j.bmcl.2004.05.028 (Gsk, 2004):

biological target: Transient receptor potential cation channel subfamily V member 1 (Homo sapiens, UniProt Q8NER1); experiment: FLIPR (Fluorescence Imaging Plate Reader)-Based Ca2+ Assay; details: pH 7.2; 25 °C
Description: One day before the assay was performed, human TRPV1 expressed in 1321N1 astrocytoma cells were plated onto 96-well assay plates and grown until 2.5 h before the assay, and the cells were loaded with the Ca2+ reporter dye Fluo3-AM for 2 h at room temperature. After this, the cells were washed, and continuously being incubated for 30 min with medium containing test compounds at a range of different concentrations.

Sequence of Transient receptor potential cation channel subfamily V member 1 (Q8NER1 whole entry): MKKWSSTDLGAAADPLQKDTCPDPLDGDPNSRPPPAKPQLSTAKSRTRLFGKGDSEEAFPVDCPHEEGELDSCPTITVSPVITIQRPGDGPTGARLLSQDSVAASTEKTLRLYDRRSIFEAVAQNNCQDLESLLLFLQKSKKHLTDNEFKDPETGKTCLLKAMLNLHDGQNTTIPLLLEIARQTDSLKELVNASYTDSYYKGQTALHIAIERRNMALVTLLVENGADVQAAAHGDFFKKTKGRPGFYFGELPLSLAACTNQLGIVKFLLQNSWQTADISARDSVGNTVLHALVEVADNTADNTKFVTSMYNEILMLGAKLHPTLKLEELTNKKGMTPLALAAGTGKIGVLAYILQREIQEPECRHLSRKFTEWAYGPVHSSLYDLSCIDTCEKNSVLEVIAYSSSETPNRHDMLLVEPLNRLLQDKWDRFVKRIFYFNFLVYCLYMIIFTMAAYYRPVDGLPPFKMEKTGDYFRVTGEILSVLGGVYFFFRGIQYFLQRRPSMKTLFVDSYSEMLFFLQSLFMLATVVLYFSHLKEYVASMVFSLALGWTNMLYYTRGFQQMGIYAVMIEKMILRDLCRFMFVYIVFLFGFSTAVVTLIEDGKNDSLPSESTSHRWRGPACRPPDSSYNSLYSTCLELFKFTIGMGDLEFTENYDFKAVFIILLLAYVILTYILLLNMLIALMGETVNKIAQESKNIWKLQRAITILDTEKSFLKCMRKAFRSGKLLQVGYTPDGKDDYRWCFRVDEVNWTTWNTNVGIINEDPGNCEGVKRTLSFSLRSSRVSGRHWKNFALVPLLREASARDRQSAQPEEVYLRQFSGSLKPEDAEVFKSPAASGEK

Row | EC50 [nM] | Compound
1 | 20 | COc1cccc(NC(=O)/C=C/c2ccc(Cl)cc2)c1 [(2E)-3-(4-chlorophenyl)-N-(3-methoxyphenyl)prop-2-enamide]
2 | 16 | CCN(CCNC(=O)Nc1ccccc1Br)c1cccc(C)c1 [3-(2-bromophenyl)-1-{2-[ethyl(3-methylphenyl)amino]ethyl}urea]
3 | 32 | Oc1cc2c(cc1O)CN(C(=S)NCCc1ccc(Cl)cc1)CCC2 [N-[2-(4-chlorophenyl)ethyl]-7,8-dihydroxy-2,3,4,5-tetrahydro-1H-2-benzazepine-2-carbothioamide]
